# Test results: patent US20250059205A1, “Heterocyclic Compounds and Methods of Use” (AMGEN INC., priority 2021, published 2025)
# Like-named read-outs stand apart in the source and are kept apart here.
# Experiments:
# [1] = target: His-tagged KRAS G12D protein (Homo sapiens, UniProt P01116, G12D); assay: KRAS G12D TR-FRET Assay; format: binding
# Method: Compounds of interest were prepared in a dose-response titration in DMSO, and 80 nL were added via Labcyte Echo to each well of a 384-well plate (Perkin Elmer 6008280). […] The plate was incubated for 30 minutes at room temperature. Biotinylated KRPep-2d substrate (Amgen) was diluted to 20 nM in Assay Buffer and 2 μL was added to all wells and incubated for 1 h at room temperature. Detection Reagent (0.4 nM LANCE Eu-W1024 Anti-6xHis (Perkin Elmer AD0401), 5 nM streptavidin-d2 (Cisbio 610SADLA)) was prepared in Assay Buffer, then 4 μL was added to the plate and incubated for 1 h at room temperature. Plates were read using PerkinElmer EnVision (ex: 320 nm, em1: 665 nm, em2: 615 nm) and em1/em2 data was used to generate curve fits using a 4-parameter logistic model to calculate IC50 values.
# [2] = target: GDP-bound KRAS protein (aa 1-169), containing both G12D and C118A amino acid substitutions (Homo sapiens, UniProt P01116, C118A/G12D); assay: KRAS G12D Coupled Nucleotide Exchange Assay; format: biochemical; conditions: 2 h compound pre-incubation
# Chain of GDP-bound KRAS protein (aa 1-169), containing both G12D and C118A amino acid substitutions (P01116 1-169 isoform P01116-2 G12D/C118A): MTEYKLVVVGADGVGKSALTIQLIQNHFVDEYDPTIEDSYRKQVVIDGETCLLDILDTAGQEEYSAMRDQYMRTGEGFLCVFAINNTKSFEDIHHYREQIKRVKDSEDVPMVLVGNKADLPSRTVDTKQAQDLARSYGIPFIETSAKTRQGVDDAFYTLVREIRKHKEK
# Method: Following compound pre-incubation, purified SOS protein (aa 564-1049) and GTP (Roche 10106399001) were added to the assay wells and incubated for an additional 30 min. […] The assay plates were then read on a PerkinElmer EnVision Multilabel Reader, using AlphaScreen® technology, and data were analyzed using a 4-parameter logistic model to calculate IC50 values.
# [3] = tested on: Phosphorylation of ERK1/2 in A-427 cells; assay: Phospho-ERK1/2 MSD Assay (A-427 cells); format: cell-based; conditions: 2 h treatment, read-out: p-ERK (A427 cells) IC50
# Method: (§1) A-427 (ATCC® HTB-53™) cells were cultured in RPMI 1640 Medium (ThermoFisher Scientific 11875093) containing 10% fetal bovine serum (ThermoFisher Scientific 16000044) and 1× penicillin-streptomycin-glutamine (ThermoFisher Scientific 10378016). Sixteen hours prior to compound treatment, A-427 cells were seeded in 96-well cell culture plates at a density of 25,000 cells/well and incubated at 37° C., 5% CO2. A compound dose-response titration was diluted in growth media, added to appropriate wells of a cell culture plate, and then incubated at 37° C., 5% CO2 for 2 h. Following compound treatment, cells were washed with ice-cold Dulbecco's phosphate-buffered saline, no Ca^2+ or Mg^2+ (ThermoFisher Scientific 14190144), and then lysed in RIPA buffer (50 mM Tris-HCl pH 7.5, 1% Igepal, 0.5% sodium deoxycholate, 150 mM NaCl, and 0.5% sodium dodecyl sulfate) containing protease inhibitors (Roche 4693132001) and phosphatase inhibitors (Roche 4906837001). Phosphorylation of ERK1/2 in compound-treated lysates was assayed using Phospho-ERK1/2 Whole Cell Lysate kits (Meso Scale Discovery K151DWD) according to the manufacturer's protocol. Assay plates were read on a Meso Scale Discovery Sector Imager 6000, and data were analyzed using a 4-parameter logistic model to calculate IC50 values.
# [4] = tested on: Phosphorylation of ERK1/2 in AsPC-1 cells; assay: Phospho-ERK1/2 MSD Assay (AsPC-1 cells); format: cell-based; conditions: 2 hours treatment, read-out: p-ERK (AsPC-1 cells) IC50
# Method: as §1, with “AsPC-1” for “A-427”, “CRL-1682™)” for “HTB-53™)”, “hours.” for “h.”
# Chain of His-tagged KRAS G12D protein (P01116 1-188 isoform P01116-2 G12D): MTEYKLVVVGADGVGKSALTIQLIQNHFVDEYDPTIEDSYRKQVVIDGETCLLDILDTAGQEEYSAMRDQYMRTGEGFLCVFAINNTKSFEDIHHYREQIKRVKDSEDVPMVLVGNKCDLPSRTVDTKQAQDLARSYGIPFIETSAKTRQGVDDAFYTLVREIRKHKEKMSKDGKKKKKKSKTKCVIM
Structure (SMILES),IC50 [1] [nM],Avg 2 h Coupled Exchange IC50 [2] [nM],IC50 [3] [nM],IC50 [4] [nM],"IC50 ([3]; Homo sapiens, A-427, 2 h) [nM]","IC50 ([4]; Homo sapiens, ASPC1, 2 h) [nM]"
"CCc1c(F)ccc2cc(O)cc(-c3c(F)cc4c(N5C6CCC5C(=O)NC6)nc(OC[C@@]56CCCN5C[C@H](F)C6)nc4c3F)c12 (single isomer, unassigned) [Example 176]",11,7,545,2650,,
"Cc1c(-c2cc(O)cc3ccccc23)ccc2c(N3CC4CCC(C3)N4)nc(OCC34CCCN3C[C@H](F)C4)nc12 (stereo in doubt) [Example 32, 4-(4-((1R,5S)-3,8-diazabicyclo[3.2. 1]octan-3-yl)-2-(((2R,7aS)-2-fluorotetrahydro-1H-pyrrolizin-7a(5H)-yl)methoxy)-8-methylquinazolin-7-yl)naphthalen-2-ol]",5,2,,,341,712
"Oc1cc(Cl)c(C2CC2)c(-c2c(F)cc3c(N4CC5CCC4CN5)nc(OC[C@@]45CCCN4C[C@H](F)C5)nc3c2F)c1 (stereo in doubt) [Example 143, 3-(4-((1R,4R)-2,5-diazabicyclo[2.2.2]octan-2-yl)-6,8-difluoro-2-(((2R,7aS)-2-fluorotetrahydro-1H-pyrrolizin-7a(5H)-yl)methoxy)quinazolin-7-yl)-5-chloro-4-cyclopropylphenol]",3,3,,,13,46
"Oc1cc(-c2ccc3c(N4[C@@H]5CC[C@H]4CNC5)nc(OC[C@@]45CCCN4C[C@H](F)C5)nc3c2F)c2ccccc2c1 [Example 1, 4-(4-((1R,5S)-3,8-Diazabicyclo[3.2.1]octan-8-yl)-8-fluoro-2-(((2R,7aS)-2-fluorotetrahydro-1H-pyrrolizin-7a(5H)-yl)methoxy)quinazolin-7-yl)naphthalen-2-ol]",4,3,,,171,420
"Oc1cc(-c2ccc3c(N4[C@@H]5CNC[C@H]4COC5)nc(OC[C@@]45CCCN4C[C@H](F)C5)nc3c2F)c2ccccc2c1 [Example 2, 4-(4-((1R,5S)-3-oxa-7,9-diazabicyclo[3.3. 1]nonan-9-yl)-8-fluoro-2-(((2R,7aS)-2-fluorotetrahydro-1H-pyrrolizin-7a(5H)-yl)methoxy)quinazolin-7-yl)naphthalen-2-ol]",7,4,,,222,721
"Oc1cc(-c2ccc3c(N4[C@@H]5CC[C@H]4CNC5)nc(OC[C@]45CCCN4C[C@H](F)C5)nc3c2F)c2ccccc2c1 [Example 3, 4-(4-((1R,5S)-3,8-diazabicyclo[3.2. 1]octan-8-yl)-8-fluoro-2-(((2R,7aR)-2-fluorotetrahydro-1H-pyrrolizin-7a(5H)-yl)methoxy)quinazolin-7-yl)naphthalen-2-ol]",10,5,,,650,812
"Oc1cc(-c2ccc3c(N4C[C@H]5C[C@@H](C4)N5)nc(OC[C@@]45CCCN4C[C@H](F)C5)nc3c2F)c2ccccc2c1 [Example 4, 4-(4-((1R,5S)-3,6-diazabicyclo[3.1. 1]heptan-3-yl)-8-fluoro-2-(((2R,7aS)-2-fluorotetrahydro-1H-pyrrolizin-7a(5H)-yl)methoxy)quinazolin-7-yl)naphthalen-2-ol]",5,7,,,294,1230
"Cc1c(-c2cc(O)cc3ccccc23)ccc2c(N3C[C@H]4C[C@@H](C3)N4)nc(OC[C@@]34CCCN3C[C@H](F)C4)nc12 [Example 5, 4-(4-((1R,5S)-3,6-diazabicyclo[3.1. 1]heptan-3-yl)-2-(((2R,7aS)-2-fluorotetrahydro-1H-pyrrolizin-7a(5H)-yl)methoxy)-8-methylquinazolin-7-yl)naphthalen-2-ol]",43,19,,,2150,2970
